The values below come from patent US4329341A, “5-Phenyl-1,3,4,5-tetrahydro-2H-1,4-benzodiazepin-2-ones, and pharmaceutical compositions containing them” (Richter Gedeon Vegyeszeti Gyar Rt, priority 1980, dated 1982).

One data set has as its system CFLP male mice. Kind of data set: Potentiation of activity of sodium-barbital (measurement of the sedative activity). The settings on record: for Number of the test animals fallen asleep in % of the control: 20 mg./kg. i.p., after one hour Na-barbital 100 mg./kg. i.p. Format: in vivo. As to the method:
Determination of the potentiation of activity of sodium-barbital (measurement of the sedative activity)
In the tests carried out [see S. Goldschmidt and R. Wohr: Z. physiol. Chem. 308, 9 /1957/; D. V. Parker: J. Pharm. Pharmac. 27, 729 /1975/] the test animals were pretreated with a 20 mg./kg. i.p. dose of the test compounds of the general formula (I) and after one hour were administered a 100 mg./kg. i.p. dose of Na-barbital.
(§1) As test animals CFLP male mice weighing […]. were used.

Data set [1] concerns NADPH-depending multifunctional oxydase enzyme system of the liver. In words: Hexobarbital-induced sleeping time (measurement of enzyme inducing activity). Format: in vivo, CFLP male mice. The conditions noted are these: for Hexobarbital-sleeping time, 1-hour pretreatment, average ± SE / Hexobarbital-sleeping time, 1-hour pretreatment, Δ% (percentage change related to the control) / Hexobarbital-sleeping time, 24-hour pretreatment, Δ% (percentage change related to the control) / Hexobarbital-sleeping time, 24-hour pretreatment, average ± SE: 40 mg./kg. p.o., hexobarbital 60 mg./kg. i.v.; for Hexobarbital-sleeping time, 1-hour pretreatment, average ± SE: control 35 ± 2.38; for Hexobarbital-sleeping time, 1-hour pretreatment, Δ% (percentage change related to the control) / Hexobarbital-sleeping time, 24-hour pretreatment, average ± SE: x: p < 0.001 compared to the control; for Hexobarbital-sleeping time, 24-hour pretreatment, average ± SE: control 34 ± 2.60.
Text: The biological activity and duration of activity of different endogenic and exogenic compounds are greatly influenced by the activity of the NADPH- (nicotinic acid amide-adenine-dinucleotide phosphate-) depending multifunctional oxydase enzyme system of the liver. There are numerous compounds known in the art, showing various pharmacological activities, which are capable of increasing or inducing the activity of the metabolising, multifunctional oxydase enzyme system of the liver [see e.g. Sher, S.P.: Toxicol. appl. Pharmacol. 18, 780 /1971/; G. J. Mannering: in A. Burger's Selected Pharmacological Testing Methods, 51-119 S., Marcel Dekker Inc., New York /1968/]. […] Therefore phenobarbital can successfully be used in the treatment of Czigler-Najjar and Cilbert syndroms and neonatal hyperbilirubinemia, though due to its hypnotic-sedative effect the inducing activity of this compound is not optimal [Vessel and J. E. Page: J. Clin. Invest. 48, 2202 /1969/; J. T. Wilson: Pediatrics 43, 424 /1969/].
For screening the enzyme inducing activity the change in the hexobarbital-induced sleeping time is conventionally measured. The inducing activity of the compounds of the general formula (I) according to the invention was compared to the corresponding activity of phenobarbital and to their own sedative effect, using the following test methods.
Determination of the sleeping time induced by hexobarbital (measurement of enzyme inducing activity)
After (a) one hour and (b) after 24-hour pretreatment with a 40 mg./kg. p.o. dose of the test compounds, the groups of test animals were administered a 60 mg./kg. i.v. dose of hexobarbital.
as §1

For data set [2], the system named is metabolysing enzyme system of the liver. The conditions noted are these: diseases caused by defectiveness of the metabolysing enzyme system of the liver; cited from earlier work.
Another data set can be described thus: Acute toxicity (p.o.). Set-up: species or system CFLP male mice. The conditions noted are these: mouse, in vivo, po, 14 days. The procedure:
To the test animals 250 and 500 mg./kg. doses, resp. of the test compounds were administered orally and the number of the dead animals was registered for 14 days.
as §1

The structures appear in SMILES notation.

Take `C[C@@H]1C(=O)N(C)c2ccc(Cl)cc2[C@@H](c2ccccc2)N1C(N)=O` (relative stereo) [Example 5, 3RS,5RS-1,3-Dimethyl-4-carbamoyl-5-phenyl-7-chloro-1,3,4,5-tetrahydro-2H-1,4-benzodiazepin-2-one]: the “Number of the test animals fallen asleep in % of the control” value (“Number … in % of the control” below) in the data set on CFLP male mice is recorded as 20%. Moreover, in data set [1] (1-hour pretreatment), the “Hexobarbital-sleeping time, 1-hour pretreatment, average ± SE” value stood at 37.3 ± 3.01 min; the “Hexobarbital-sleeping time, 1-hour pretreatment, Δ% (percentage change related to the control)” value is given as “+6%”; the “Sleeping time 1 hour after administration, in words” value (“Sleeping time 1 hour” for short) is “most favourable properties”. Further, in data set [1], the “Hexobarbital-sleeping time, 24-hour pretreatment, Δ% (percentage change related to the control)” value is recorded as -73% and the “Hexobarbital-sleeping time, 24-hour pretreatment, average ± SE” value was 9 ± 0.43 min.

As to `C[C@@H]1N[C@@H](c2ccccc2)c2cc(Cl)ccc2N(C)C1=O` [Example 1, 3S,5S-1,3-Dimethyl-5-phenyl-7-chloro-1,3,4,5-tetrahydro-2H-1,4-benzodiazepin-2-one], the “Number … in % of the control” value in the data set with CFLP male mice worked out at 50%. Further, in data set [1] (1-hour pretreatment), the “Hexobarbital-sleeping time, 1-hour pretreatment, average ± SE” value was found to be 67.2 ± 7.01 min and the “Hexobarbital-sleeping time, 1-hour pretreatment, Δ% (percentage change related to the control)” value is “+91%”. For the same compound, in data set [1], the “Hexobarbital-sleeping time, 24-hour pretreatment, Δ% (percentage change related to the control)” value is given as -43% and the “Hexobarbital-sleeping time, 24-hour pretreatment, average ± SE” value was 19.5 ± 1.84 min.

Consider `C[C@H]1N[C@H](c2ccccc2)c2cc(Cl)ccc2N(C)C1=O` [Example 2, 3R,5R-1,3-Dimethyl-5-phenyl-7-chloro-1,3,4,5-tetrahydro-2H-1,4-benzodiazepin-2-one], for which, in the data set on CFLP male mice, the “Number … in % of the control” value is “.phi”. Also, in data set [1] (1-hour pretreatment), the “Hexobarbital-sleeping time, 1-hour pretreatment, average ± SE” value came to 61.2 ± 5.21 min and the “Hexobarbital-sleeping time, 1-hour pretreatment, Δ% (percentage change related to the control)” value is listed as “+73%”. In addition, in data set [1], the “Hexobarbital-sleeping time, 24-hour pretreatment, Δ% (percentage change related to the control)” value is -61% and the “Hexobarbital-sleeping time, 24-hour pretreatment, average ± SE” value is 13.3 ± 0.54 min.

As for `C[C@H]1C(=O)N(C)c2ccc(Cl)cc2[C@H](c2ccccc2)N1C(N)=O` [Example 3, 3S,5S-1,3-Dimethyl-4-carbamoyl-5-phenyl-7-chloro-1,3,4,5-tetrahydro-2H-1,4-benzodiazepin-2-one], in the data set on CFLP male mice, the “Number … in % of the control” value came to 0%. Moreover, in data set [1] (1-hour pretreatment), the “Hexobarbital-sleeping time, 1-hour pretreatment, average ± SE” value came out at 43.3 ± 4.18 min; the “Hexobarbital-sleeping time, 1-hour pretreatment, Δ% (percentage change related to the control)” value is on record as “+23%”; the “Sleeping time 1 hour” value is “most favourable properties”. Also, in data set [1], the “Hexobarbital-sleeping time, 24-hour pretreatment, Δ% (percentage change related to the control)” value is recorded as -65% and the “Hexobarbital-sleeping time, 24-hour pretreatment, average ± SE” value stood at 12.0 ± 0.83 min.

For the compound `C[C@@H]1C(=O)N(C)c2ccc(Cl)cc2[C@@H](c2ccccc2)N1C(N)=O` [Example 4, 3R,5R-1,3-Dimethyl-4-carbamoyl-5-phenyl-7-chloro-1,3,4,5-tetrahydro-2H-1,4-benzodiazepin-2-one], the “Number … in % of the control” value in the data set on CFLP male mice is reported as “.phi”. In data set [1] (1-hour pretreatment), the “Hexobarbital-sleeping time, 1-hour pretreatment, average ± SE” value amounted to 43.3 ± 5.01 min; the “Hexobarbital-sleeping time, 1-hour pretreatment, Δ% (percentage change related to the control)” value is given as “+23%”; the “Sleeping time 1 hour” value was “most favourable properties”. In addition, in data set [1], the “Hexobarbital-sleeping time, 24-hour pretreatment, Δ% (percentage change related to the control)” value was -71% and the “Hexobarbital-sleeping time, 24-hour pretreatment, average ± SE” value came to 9.9 ± 0.62 min.

As for `CCC1(CC)C(=O)NC(=O)NC1=O` [Na-barbital, sodium-barbital, reference compound], in the data set on CFLP male mice (100 mg./kg. i.p. Na-barbital), the “Narcotic effect of Na-barbital alone” value was “no narcotic effect”.

Regarding `CCC1(c2ccccc2)C(=O)NC(=O)NC1=O` [Phenobarbital, reference compound], in the data set on CFLP male mice, the “Number … in % of the control” value was found to be 60%. The “Inducing activity in human diseases, in words” value in data set [2] is given as “shows an inducing activity in the case of human diseases”. Also, the LD50 at 336 h in the data set “Acute toxicity (p.o.)” was determined as 191 mg/kg. Moreover, in data set [1] (1-hour pretreatment), the “Hexobarbital-sleeping time, 1-hour pretreatment, average ± SE” value was 86.2 ± 7.51 min; the “Hexobarbital-sleeping time, 1-hour pretreatment, Δ% (percentage change related to the control)” value was “+145%”; the “Increase of sleeping time relative to its original value” is listed as approximately 3 times. In data set [1], the “Hexobarbital-sleeping time, 24-hour pretreatment, Δ% (percentage change related to the control)” value was -69% and the “Hexobarbital-sleeping time, 24-hour pretreatment, average ± SE” value is 11.2 ± 0.35 min.
